According to patent US20240092779A1, “USP1 INHIBITORS AND USES THEREOF” (Zentaur Therapeutics USA Inc., priority 2022, published 2024):
≈ marks a conversion by molar mass, not a printed value.

Columns and labels:
[1] = Solubility in FaSSIF (Fasted State Simulated Intestinal Fluid); assay type: physicochemical; conditions: FaSSIF pH 6.5, 25° C.; for solubility at 2 h: kinetic from dmso stock
Method: Solubility in FaSSIF (Fasted State Simulated Intestinal Fluid)
Certain Compounds of the Disclosure were assessed for the apparent solubility in FaSSIF.
0.420 g of NaOH, 3.438 g of NaH2PO4 and 6.186 g of NaCl were dissolved into about 900 mL ultrapure water. The solution was adjusted to the pH of 6.5 with 1N NaOH or 1N HCl. The solution was then diluted with ultrapure water to 1000 mL at room temperature. The resulting solution is used as buffer solution.
2.240 g of FaSSIF Powder was added to about 500 mL of above-mentioned buffer solution. The solution was stirred until powder was completely dissolved. Then the solution was diluted with buffer A to 1000 mL at room temperature. This solution is FaSSIF to be used in the following experiment.
15 μL of stock solution (10 mM) of each sample was placed into their proper 96-well rack. 485 μL of FaSSIF was added into each vial of the cap-less solubility sample plate. One stir stick was added to each vial and the vial was sealed using a molded PTFE/Silicone plug. The solubility sample plate was transferred to the Eppendorf Thermomixer Comfort plate shaker and shaked at 25° C. at 1100 RPM for 2 hours. After completion of the 2 hours, the stir sticks using a big magnet were removed. The samples from the solubility sample plate were transferred into the filter plate. Using the vacuum manifold, all the samples are filtered. Aliquot of 5 μL was taken from filtrate followed by addition of 5 μL DMSO and 490 μL of a mixture of H2O and acetonitrile containing internal standard (1:1).
3 μM Standards solution (STD) was prepared from the 10 mM DMSO STD plate.as following: transferring 6 μL into the remaining empty plate, adding 194 μL of DMSO to that plate to have a STD concentration of 300 μM. From the 300 μM DMSO STD plate, 5 μL solution was transferred into the remaining empty plate. Addition of 5 μL PBS and 490 μL of a mixture of H2O and acetonitrile containing internal standard (1:1) to that plate furnished a final STD concentration of 3 μM STD solution.
The samples are analyzed and quantified against the standard of known concentration using LC/MS/MS, calculating the solubility of the test compound as following (DF means the dilution factor):
[Sample solubility in FsSSIF (04)]=Area Ratio sample×DF sample×[STD]/Area Ratio STD

[2] = Liver microsomal stability (HLM); assay type: in vitro ADME; conditions: human liver microsomes 0.5 mg/mL, 1 μM compound, NADPH; for microsomal CLint at 1 μM: human, liver microsomes
Method: Liver Microsomal Stability
Certain Compounds of the Disclosure were assessed for ADME metabolic stability in human liver microsomes (HLM).
Samples were prepared by adding 222.5 μL of a master solution (100 mM phosphate buffer and 0.5 mg/mL liver microsomes (HLM)) and 25 μL of a 10 mM NADPH solution to incubation plates, which were then warmed for 10 min. Each compound was separately dissolved in DMSO to prepare 10 mM stock solutions, which were then diluted to 100 μM with acetonitrile. A reaction was started by adding 2.5 μL of the […] solution of each compound to separate incubation plates such that the final concentration of for each compound in each plate was 1 μM. Aliquots of 30 μL were taken from the reaction solution at 0.5, 5, 15, 30 and 60 minutes. The reaction was stopped by the addition of 5 volumes of cold acetonitrile with IS (100 nM alprazolam, 200 nM caffeine and 100 nM tolbutamide). Aliquot of 100 μL of the supernatant was diluted by 100 μL ultra-pure water, and the mixture was used for LC/MS/MS analysis. Peak areas were determined from extracted ion chromatograms. […]. The percentage of remaining parent was calculated from peak area of test compound or PC. The slope value, k, is determined by linear regression of the natural logarithm of percent parent remaining vs. incubation time curve. All calculations are carried out using Microsoft Excel.
The in vitro half-life (in vitro t1/2) is determined from the slope value:
Conversion of the in vitro t1/2 (in min) into the in vitro intrinsic clearance (in vitro CLint, (HLM Clint (μL/min/mg proteins))) is done using the following equation: […]
A: HLM Clint <10 μL/min/mg; B: 10 μL/min/mg≤HLM Clint <50 μL/min/mg; C: HLM Clint ≥50 μL/min/mg.

Row | Structure (SMILES) | solubility at 2 h [1] [µM] | microsomal CLint at 1 μM [2] [µL/min/mg] | Solubility in FaSSIF(μM) ([1]; 2 hours) | HLM Clint (μL/min/mg) [2]
1 | COc1ncnc(C2CC2)c1-c1ncc2cc(-c3cn(C)c(C)n3)c(=O)n(Cc3ccc(-c4nc(C(F)(F)F)cn4C4CC4)cc3)c2n1 [Compound I-144] | < 10 | 10 to 50 | – | –
2 | COc1cc(Cn2c(=O)cnc3cnc(-c4c(OC)ncnc4C4CC4)nc32)ccc1-c1nc(C(F)(F)F)cn1C(C)C [Compound I-118] | ≥ 100 | 10 to 50 | – | –
3 | COc1ncnc(C2CC2)c1-c1ncc2cc(-c3c(C)nn(C)c3C)c(=O)n(Cc3ccc(-c4nc(C(F)(F)F)cn4C4CC4)cc3)c2n1 [Compound I-129] | ≥ 100 | 10 to 50 | – | –
4 | COc1cc(Cn2c(=O)cnc3cnc(-c4c(OC)ncnc4C4CC4)nc32)ccc1-n1nc(C(F)(F)F)cc1OC [Compound I-123] | ≥ 100 | 10 to 50 | – | –
5 | COc1cc(Cn2c(=O)cnc3cnc(-c4c(OC)ncnc4C4CC4)nc32)ccc1-c1nc(C(F)(F)F)cn1C(C)C [Compound I-119] | – | – | C (Solubility ≥100 μN) | A (HLM Clint <10 μL/min/mg)
6 | COc1ncnc(C2CC2)c1-c1ncc2cc(-c3cnn(CCO)c3)c(=O)n(Cc3ccc(-c4nc(C(F)(F)F)cn4C4CC4)cc3)c2n1 [Compound I-131] | ≥ 100 | < 10 | – | –
7 | COc1cc(Cn2c(=O)ccc3cnc(-c4c(OC)ncnc4C4CC4)nc32)cc(F)c1-c1nc(C(F)(F)F)cn1C(C)C [Compound I-22, 2-(4-cyclopropyl-6-methoxypyrimidin-5-yl)-8-({3-fluoro-4-[1-isopropyl-4-(trifluoromethyl)imidazol-2-yl]-5-methoxyphenyl}methyl)pyrido[2,3-d]pyrimidin-7-one] | ≥ 100 | 10 to 50 | – | –
8 | COc1ncnc(C2CC2)c1-c1ncc2cc(C3=CCN(C)CC3)c(=O)n(Cc3ccc(-c4nc(C(F)(F)F)cn4C(C)C)cc3)c2n1 [Compound I-106] | ≥ 100 | < 10 | – | –
9 | COc1ncnc(C2CC2)c1-c1ncc2ccc(=O)n(Cc3ccc(-n4nc(C(F)(F)F)cc4C)cc3)c2n1 [Compound I-8, 2-(4-cyclopropyl-6-methoxypyrimidin-5-yl)-8-({4-[5-methyl-3-(trifluoromethyl)pyrazol-1-yl]phenyl}methyl)pyrido[2,3-d]pyrimidin-7-one] | ≥ 100 | 10 to 50 | – | –
10 | COc1cc(Cn2c(=O)ccc3cnc(-c4c(OC)ncnc4C4CC4)nc32)ccc1-c1nc(C(F)(F)F)cn1C1CC1 [Compound I-124] | 10 to 100 (≈ 5.9 to 59 µg/mL) | < 10 | – | –
11 | COc1cc(Cn2c(=O)cnc3cnc(-c4c(OC)ncnc4C4CC4)nc32)ccc1-c1nc(C(F)(F)F)cn1C1CC1 [Compound I-125] | ≥ 100 | 10 to 50 | – | –
12 | COc1cc(Cn2c(=O)ccc3cnc(-c4c(OC)ncnc4OC)nc32)cc(F)c1-c1nc(C(F)(F)F)cn1C(C)C [Compound I-113] | 10 to 100 (≈ 6 to 60 µg/mL) | 10 to 50 | – | –
13 | COc1cc(Cn2c(=O)ccc3cnc(-c4c(OC)ncnc4C4CC4)nc32)cc(F)c1-c1nc(C(F)(F)F)cn1C1CC1 [Compound I-53] | ≥ 100 | 10 to 50 | – | –
14 | COc1ncnc(OC)c1-c1ncc2ccc(=O)n(Cc3ccc(-c4nc(C(F)(F)F)cn4C4CC4)cc3)c2n1 [Compound I-102] | ≥ 100 | 10 to 50 | – | –
15 | COc1ncnc(C2CC2)c1-c1nc(C)c2ccc(=O)n(Cc3ccc(-c4nc(C(F)(F)F)cn4C4CC4)cc3)c2n1 [Compound I-135] | ≥ 100 | < 10 | – | –
16 | COc1ncnc(C2CC2)c1-c1ncc2cc(C(C)(C)O)c(=O)n(Cc3ccc(-c4nc(C(F)(F)F)cn4C4CC4)cc3)c2n1 [Compound I-109] | ≥ 100 | < 10 | – | –
17 | COc1ncnc(C2CC2)c1-c1ncc2cc(-c3cnn(C)c3)c(=O)n(Cc3ccc(-c4nc(C(F)(F)F)cn4C4CC4)cc3)c2n1 [Compound I-127] | ≥ 100 | < 10 | – | –
18 | COc1ncnc(C2CC2)c1-c1ncc2cc(-c3c(C)cnn3C)c(=O)n(Cc3ccc(-c4nc(C(F)(F)F)cn4C4CC4)cc3)c2n1 [Compound I-133] | 10 to 100 (≈ 6.54 to 65.4 µg/mL) | 10 to 50 | – | –
19 | COc1ncnc(C2CC2)c1-c1ncc2ccc(=O)n(Cc3ccc(-c4nc(C(F)(F)F)cn4C(C)C)cc3)c2n1 [Compound I-4, 2-(4-Cyclopropyl-6-Methoxypyrimidin-5-Yl)-8-({4-[1-Isopropyl-4-(Trifluoromethyl)Imidazol-2-Yl]Phenyl}Methyl)Pyrido[2,3-d]Pyrimidin-7-One] | < 10 | < 10 | – | –
20 | COc1ncnc(C2CC2)c1-c1ncc2cc(-c3cnc(C)nc3)c(=O)n(Cc3ccc(-c4nc(C(F)(F)F)cn4C4CC4)cc3)c2n1 [Compound I-140] | ≥ 100 | < 10 | – | –
21 | COc1ncnc(C2CC2)c1-c1ncc2cc(-c3cnn(CCN(C)C)c3)c(=O)n(Cc3ccc(-c4nc(C(F)(F)F)cn4C4CC4)cc3)c2n1 [Compound I-132] | ≥ 100 | 10 to 50 | – | –
22 | COc1ncnc(C2CC2)c1-c1ncc2cc(C3CCN(C)CC3)c(=O)n(Cc3ccc(-n4nc(C(F)(F)F)cc4C)cc3)c2n1 [Compound I-121] | ≥ 100 | < 10 | – | –
23 | COc1ncnc(C2CC2)c1-c1ncc2cc(-c3cnn(C4CCN(C)CC4)c3)c(=O)n(Cc3ccc(-c4nc(C(F)(F)F)cn4C4CC4)cc3)c2n1 [Compound I-143] | ≥ 100 | 10 to 50 | – | –
24 | COc1cc(Cn2c(=O)ccc3cnc(-c4c(OC)ncnc4C4CC4)nc32)ccc1-n1nc(C(F)(F)F)cc1OC [Compound I-122] | 10 to 100 (≈ 5.8 to 58 µg/mL) | < 10 | – | –
25 | COc1ncnc(C2CC2)c1-c1ncc2cc(-c3cn[nH]c3)c(=O)n(Cc3ccc(-c4nc(C(F)(F)F)cn4C4CC4)cc3)c2n1 [Compound I-130] | ≥ 100 | < 10 | – | –
26 | COc1ncnc(C2CC2)c1-c1ncc2cc(-c3cnn(C)c3)c(=O)n(Cc3ccc(-c4nc(C(F)(F)F)cn4C(C)C)cc3)c2n1 [Compound I-138] | ≥ 100 | < 10 | – | –
27 | COc1ncnc(C2CC2)c1-c1ncc2ccc(=O)n(Cc3ccc(-c4nc(C(F)(F)F)cn4C(C)C)c(F)c3OC)c2n1 [Compound I-23, 2-(4-cyclopropyl-6-methoxypyrimidin-5-yl)-8-({3-fluoro-4-[1-isopropyl-4-(trifluoromethyl)imidazol-2-yl]-2-methoxyphenyl}methyl)pyrido[2,3-d]pyrimidin-7-one] | < 10 | 10 to 50 | – | –
28 | COc1ncnc(C2CC2)c1-c1ncc2ccc(=O)n(Cc3ccc(-n4nc(C(F)(F)F)cc4OC)cc3)c2n1 [Compound I-110] | < 10 | < 10 | – | –
29 | COc1ncnc(C2CC2)c1-c1ncc2cc(-c3cccnc3)c(=O)n(Cc3ccc(-c4nc(C(F)(F)F)cn4C4CC4)cc3)c2n1 [Compound I-139] | ≥ 100 | < 10 | – | –
30 | COc1ncnc(C2CC2)c1-c1ncc2cc(-c3cnn(C4CN(C)C4)c3)c(=O)n(Cc3ccc(-c4nc(C(F)(F)F)cn4C4CC4)cc3)c2n1 [Compound I-137] | ≥ 100 | 10 to 50 | – | –
